Source: patent publication US11013730B1, “Composition comprising selenazol or thiazalone derivatives and silver and method of treatment therewith” (Thioredoxin Systems AB, priority 2014, dated 2021)
≈ marks a conversion by molar mass, not a printed value. Where “and” joins values, the source holds several entries; their conditions need not be identical. Equal entries are not always repeated. Where two headings read alike, the source gives them in different places.

What was measured:
E. coli TrxR [1] = molecular target: T1, E. coli TrxR (Escherichia coli, UniProt P0A9P4); experiment: Kinetic parameters (substrate) with E. coli TrxR; assay type: biochemical
T1 sequence (P0A9P4 whole entry): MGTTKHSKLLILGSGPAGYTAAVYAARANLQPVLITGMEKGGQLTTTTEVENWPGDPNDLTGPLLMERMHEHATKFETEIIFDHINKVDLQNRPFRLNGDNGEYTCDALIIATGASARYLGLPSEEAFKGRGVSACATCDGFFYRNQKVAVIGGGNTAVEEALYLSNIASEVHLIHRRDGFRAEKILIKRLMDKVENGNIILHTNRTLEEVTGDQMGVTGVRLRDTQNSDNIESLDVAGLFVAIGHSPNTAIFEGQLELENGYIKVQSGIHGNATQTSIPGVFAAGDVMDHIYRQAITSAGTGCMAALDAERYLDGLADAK

Mammalian TrxR [2] = molecular target: T2, Mammalian TrxR (Homo sapiens, UniProt Q16881); experiment: Kinetic parameters with mammalian TrxR; assay type: biochemical; conditions: sulphur analogues
T2 sequence (Q16881 151-649 limits assumed): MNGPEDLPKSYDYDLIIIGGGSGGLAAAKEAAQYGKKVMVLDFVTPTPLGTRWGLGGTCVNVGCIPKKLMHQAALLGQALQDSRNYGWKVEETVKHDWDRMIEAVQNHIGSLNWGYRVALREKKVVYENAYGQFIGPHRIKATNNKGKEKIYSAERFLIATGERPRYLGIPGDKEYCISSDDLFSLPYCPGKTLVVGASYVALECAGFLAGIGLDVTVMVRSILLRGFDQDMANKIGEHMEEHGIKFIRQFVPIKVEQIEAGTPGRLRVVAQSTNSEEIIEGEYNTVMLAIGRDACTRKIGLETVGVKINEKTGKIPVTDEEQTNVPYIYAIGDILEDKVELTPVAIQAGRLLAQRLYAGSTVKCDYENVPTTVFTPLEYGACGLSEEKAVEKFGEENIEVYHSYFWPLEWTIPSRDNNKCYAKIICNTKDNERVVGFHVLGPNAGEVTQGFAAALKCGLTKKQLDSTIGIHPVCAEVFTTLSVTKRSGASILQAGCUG

E. coli Trx-(SH)2 = E. coli Trx-(SH)2 (Escherichia coli, UniProt P0AA25); conditions: fluorescence spectroscopy, ref (32); cited from earlier work
Sequence of E. coli Trx-(SH)2 (P0AA25 whole entry): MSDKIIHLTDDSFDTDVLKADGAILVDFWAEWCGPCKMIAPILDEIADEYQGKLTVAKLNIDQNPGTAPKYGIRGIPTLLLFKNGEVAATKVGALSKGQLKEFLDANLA

E. coli TrxR [3] = molecular target: T1, E. coli TrxR; experiment: E. coli TrxR inhibition, thioredoxin dependent DTNB reduction assay; assay type: biochemical; conditions: Lineweaver-Burk plots, reduction of DTNB, read-out: Ki (dissociation constant of inhibitor-TrxR complex), competitive inhibition of E. coli TrxR
E. coli TrxR [4] = molecular target: T1, E. coli TrxR; experiment: as above; assay type: biochemical
Description: Further we examined the effect of ebselen in the reduction of disulfide by E. coli Trx and TrxR using both DTNB and insulin as substrates.
All the benzisoselenazol-3(2H)-one and bisbenzisoselenazol-3(2H)-one derivatives were tested as potential E. coli TrxR inhibitors by standard DTNB assay. […] The reactions were started by adding 1 mM DTNB to the mixture of 100 nM TrxR, 2 μM Trx, 240 μM NADPH, and different concentration of inhibitor (1-40 μM). […] The reactions were started by adding 6 nM TrxR at room temperature. Inhibition constants (Ki) for all the compounds were measured from Dixon plot, which plots 1/v versus […], I=Inhibitor concentration).

Mammalian TrxR [5] = molecular target: T2, Mammalian TrxR; conditions: from ref (3) / (32); cited from earlier work
H. pylori strains = experiment: MIC against H. pylori strains
E. coli = assay type: cell-based, Escherichia coli
Staphylococcus aureus = conditions: cited from earlier work
H. pylori TrxR = H. pylori TrxR (Helicobacter pylori, UniProt P56431); experiment: H. pylori TrxR activity, insulin reduction assay; conditions: 4, 20, and 40 μM
Sequence of H. pylori TrxR (P56431 whole entry): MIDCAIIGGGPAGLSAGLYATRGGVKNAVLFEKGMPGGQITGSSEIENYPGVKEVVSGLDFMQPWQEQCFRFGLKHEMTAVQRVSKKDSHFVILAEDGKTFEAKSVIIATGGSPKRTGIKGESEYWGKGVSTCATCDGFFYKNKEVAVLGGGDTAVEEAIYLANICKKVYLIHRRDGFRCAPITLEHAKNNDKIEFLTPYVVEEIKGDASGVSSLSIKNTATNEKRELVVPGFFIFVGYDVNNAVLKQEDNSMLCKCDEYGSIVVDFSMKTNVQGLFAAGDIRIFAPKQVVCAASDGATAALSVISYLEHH

HEK 293T cells = HEK 293T cells growth (cytotoxicity); assay type: cell-based; conditions: Homo sapiens, HEK-293T; read-out: IG50 for HEK 293T
Gor DHB4 E. coli = experiment: Inhibition of bacterial growth (MIC), Gor DHB4 E. coli; conditions: Escherichia coli, DHB4E.COLI, read-out: MIC for Gor DHB4 E. coli
Description: (§1) Here E. coli DHB4 strains wt, gshA^−, gor^−, oxyR^− were used as the model to test the antibiotics activity of these ebselen derivatives.

Bacillus subtilis = experiment: Growth inhibition of Bacillus subtilis by ebselen and silver, A600
Description: Bacterial growth was determined as A600 after 16 h at 37° C.

[6] = molecular target: E. coli ribonucleotide reductase (Escherichia coli, UniProt P00452); experiment: Inhibition of E. coli ribonucleotide reductase; assay type: biochemical; conditions: data not shown
Sequence of E. coli ribonucleotide reductase (P00452 whole entry): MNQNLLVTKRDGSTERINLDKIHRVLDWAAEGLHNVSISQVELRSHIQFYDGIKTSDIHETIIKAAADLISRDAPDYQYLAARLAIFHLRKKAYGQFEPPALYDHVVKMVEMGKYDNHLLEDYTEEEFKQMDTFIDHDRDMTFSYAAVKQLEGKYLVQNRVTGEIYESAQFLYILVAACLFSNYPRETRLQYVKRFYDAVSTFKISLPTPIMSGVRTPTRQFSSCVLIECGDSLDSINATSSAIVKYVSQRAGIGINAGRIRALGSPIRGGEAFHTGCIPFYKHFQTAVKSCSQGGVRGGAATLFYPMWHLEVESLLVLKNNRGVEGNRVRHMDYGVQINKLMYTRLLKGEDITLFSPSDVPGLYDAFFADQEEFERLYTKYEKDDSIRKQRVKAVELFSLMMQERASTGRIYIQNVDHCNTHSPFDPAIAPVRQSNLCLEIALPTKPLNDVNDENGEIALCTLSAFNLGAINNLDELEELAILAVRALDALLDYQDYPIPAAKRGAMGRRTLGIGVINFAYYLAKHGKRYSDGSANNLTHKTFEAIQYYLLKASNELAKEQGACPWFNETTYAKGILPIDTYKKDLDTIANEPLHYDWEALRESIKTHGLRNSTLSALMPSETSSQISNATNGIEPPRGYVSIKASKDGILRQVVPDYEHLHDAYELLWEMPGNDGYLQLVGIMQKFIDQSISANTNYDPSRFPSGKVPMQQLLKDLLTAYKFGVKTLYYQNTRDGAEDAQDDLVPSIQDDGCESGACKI

recombinant rat TrxR = molecular target: T3, recombinant rat TrxR (Rattus norvegicus, UniProt O89049); experiment: Inhibition of mammalian (recombinant rat) TrxR
T3 sequence (O89049 1-499): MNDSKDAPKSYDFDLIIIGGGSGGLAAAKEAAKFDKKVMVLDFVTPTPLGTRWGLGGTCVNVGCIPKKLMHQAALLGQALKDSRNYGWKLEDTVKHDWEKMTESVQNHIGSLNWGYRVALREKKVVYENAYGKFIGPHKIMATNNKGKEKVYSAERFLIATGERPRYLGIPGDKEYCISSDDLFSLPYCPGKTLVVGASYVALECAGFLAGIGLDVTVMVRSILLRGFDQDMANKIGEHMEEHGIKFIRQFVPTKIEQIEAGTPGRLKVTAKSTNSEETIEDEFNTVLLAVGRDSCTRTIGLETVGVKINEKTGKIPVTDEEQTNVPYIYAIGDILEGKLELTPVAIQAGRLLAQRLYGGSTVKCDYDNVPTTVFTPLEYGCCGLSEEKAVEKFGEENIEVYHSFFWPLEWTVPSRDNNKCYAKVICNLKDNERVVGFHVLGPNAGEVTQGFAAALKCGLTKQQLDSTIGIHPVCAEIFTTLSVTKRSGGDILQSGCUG

E. coli TrxR [7] = molecular target: T1, E. coli TrxR; experiment: TrxR activity in bacterial cell lysates, insulin coupled reduction endpoint assay; assay type: cell-based; conditions: 5 μM silver and 2, 5, 10 μM ebselen, 1 h
Description: The reaction continued for 30 min. […] A sample without E. coli Trx was used as the background control.

E. coli gshA^− strain = conditions: with 5 μM silver, 1 h
Description: (§2) The absorbance at 600 nm were measured to detect the growth of the bacteria.
(§3) E. coli strains were cultured until the OD600 got around to 0.4, and then the bacteria were treated with 5 μM silver and different concentrations of ebselen (2, 5, 10 μM).

wild type DHB4 E. coli = experiment: Inhibition of bacterial growth (MIC), wild type DHB4 E. coli; conditions: Escherichia coli, DHB4E.COLI, read-out: MIC for wild type DHB4 E. coli
Description: as §1

E. coli NHHJ = conditions: cited from earlier work
Helicobacter pylori = experiment: Bactericidal effects on Helicobacter pylori; assay type: cell-based; conditions: read-out: minimal bactericidal concentration (MBC)
Text: The inhibition of ebselen on H. pylori was therefore investigated. […] Taken together, our results strongly support that the inhibition of ebselen on these glutathione deficient bacteria is due to the oxidization of thioredoxin system by ebselen.

HeLa cells = conditions: 24 h
Description: RAW 264.7, J774, HEK 293T, Hela cells were cultured in DMEM medium (GIBCO) supplemented with 10% FCS, 100 units/ml penicillin, and 100 μg/ml streptomycin at 37° C. in a 5% CO2 incubator. The cells were seeded in 96 micro-well plates and grown till 70-80% confluency. The cells were treated with different combination of ebselen and silver for 24 h. The cell toxicity was detected by MTT assay (15). Data are means±SD of three independent experiments.
To check whether there are synergistic toxic effects on mammalian cells, the toxicity of combination of ebselen and silver towards HeLa cells was studied. […] Nearly confluent HeLa cells were treated with combination of indicating concentration of ebselen and its analogues and silver for 24 h. then the cell toxicity was detected by MTT assay.

[8] = Glutathione peroxidase (GPx) activity of the compounds; assay type: biochemical; conditions: relative; EbSe 6 = 1
GSH = GSH amount in bacterial cell lysates; conditions: wt E. coli, 5 μM silver and 10 μM ebselen, 1 h
Description: To analyze the TrxR activity and GSH amount in the bacteria, the cells were harvested by centrifugation and washed with PBS, then the cells were resuspended in TE buffer (50 mM Tris-HCl, pH 7.5, 1 mM EDTA) containing protease inhibitor cocktail and lysed by sonication. The cell lysates were obtained by centrifugation at 13,000 rpm for 30 min and the protein concentration were measured by Lowry protein assay (Bio-Rad DC).
To measure GSH levels, 10 μg of the cell lysates was added in the solution containing 50 nM GR, 50 mM Tris-HCl, pH 7.5, 200 μM NADPH, 1 mM EDTA, 1 mM DTNB. The absorbance at 412 nm was measured for 5 min.
GSH amounts were measured as the description in material and methods.

gshA^− DHB4 E. coli = experiment: Inhibition of bacterial growth (MIC), gshA^− DHB4 E. coli
Description: as §1

wild type (wt) E. coli = experiment: Growth of wild type E. coli culture treated 1 h with silver and ebselen; conditions: with 5 μM silver
Description: as §2, §3

[9] = system: Mycobacterium tuberculosis; experiment: Sensitivity of Mycobacterium tuberculosis to ebselen, radiometric BACTEC 460 system; assay type: cell-based; conditions: medium with 5 g/l albumin, estimate

With `O=C(Nc1ccccc1)c1ccccc1SSc1ccccc1C(=O)Nc1ccccc1` [(EbS)2] the Km (E. coli TrxR [1]) was 27.6 µM, the “kcat, E. coli TrxR” value (E. coli TrxR [1]) was 1.67 s⁻¹ and the Km (Mammalian TrxR [2]) was 47 µM. For the same compound, the “kcat, mammalian TrxR” value (Mammalian TrxR [2]) was 25 s⁻¹.

In the case of `O=C(Nc1ccccc1)c1ccccc1[Se][Se]c1ccccc1C(=O)Nc1ccccc1` [(EbSe)2], the “second-order rate constant of direct reduction by reduced E. coli Trx” value (E. coli Trx-(SH)2) is listed as 1700 M⁻¹ s⁻¹, the Ki (E. coli TrxR [3]) is listed as 460 ± 50 nM and the “inhibition of E. coli TrxR (in words)” value (E. coli TrxR [4]) is listed as “strongly inhibited”. The Km (Mammalian TrxR [5]) was 40 µM and the “kcat, mammalian TrxR” value (Mammalian TrxR [5]) was 1.32 s⁻¹.

In the case of `O=c1c2ccccc2sn1-c1ccccc1` [EbS], the “kcat, E. coli TrxR” value (E. coli TrxR [1]) is reported as 11.7 s⁻¹, the MIC (H. pylori strains; NCTC11637 strain) is reported as 1.56 µg/mL (≈ 6.86 µM) and the MIC (H. pylori strains; strain YS-16) is reported as 0.39 µg/mL (≈ 1.72 µM). For the same compound, the “enhancement of the toxicity of silver toward bacteria” value (E. coli) was “less enhancement”, the “antibacterial activity (in words)” value (Staphylococcus aureus; ref (10)) was “lost the antibacterial activity” and the “inhibition of E. coli TrxR (in words)” value (E. coli TrxR [4]) was “not inhibitors”. For the same compound, the Km (Mammalian TrxR [2]) was 2.5 µM, the “kcat, mammalian TrxR” value (Mammalian TrxR [2]) was 23.33 s⁻¹ and the “H. pylori TrxR activity” value (H. pylori TrxR) was “inhibited”.

Work on `O=c1c2ccccc2[se]n1-c1ccccc1` [EbSe 6, 2-phenyl-1,2-benzisoselenazol-3(2H)-one] yielded an IC50 (HEK 293T cells) of 120000 nM, an MIC (Gor DHB4 E. coli) of 15 µM (≈ 4.11 µg/mL) and an MIC (H. pylori strains; Helicobacter pylori) of 3.13 µg/mL (≈ 11.4 µM). The MIC (H. pylori strains; Helicobacter pylori, NCTC11637) was 3.13 µg/mL (≈ 11.4 µM), the “effect of ebselen alone on bacterial growth” value (E. coli; 2, 4, 8 μM, LB medium, 16 h) was “did not show the inhibition effects” and the “second-order rate constant of direct reduction by reduced E. coli Trx” value (E. coli Trx-(SH)2) was 2e+07 M⁻¹ s⁻¹. The Ki (E. coli TrxR [3]; listed as ebselen) was 150 nM and 140 nM, the concentration inhibiting growth (Staphylococcus aureus; Staphylococcus aureus 209P) was 0.20 µg/mL and the “MIC for 90% of S. aureus strains” value (Staphylococcus aureus) was 1.56 μg per ml. The “mode of action on S. aureus” value (Staphylococcus aureus) was “bacteriocidal”, the “sensitivity of Staphyloccus aureus relative to E. coli” value (Staphylococcus aureus) was 100 fold and the concentration inhibiting growth (Staphylococcus aureus; methicillin resistant Staphylococcus aureus) was 0.20 μg per ml. The “effect on growth of B. subtilis” value (Bacillus subtilis; ebselen at 2 μM alone) was “did not inhibit the growth”, the “effect on antibacterial activity of silver” value (Bacillus subtilis; ebselen at 2 μM with silver) was “strongly helped the antibacterial activity of silver” and the “inhibition of E. coli ribonucleotide reductase” value [6] was “effective direct inhibitor”. The IC50 (recombinant rat TrxR) was > 10000 nM, the “inhibition of mammalian TrxR (in words)” value (recombinant rat TrxR) was “no inhibitory activity” and the “TrxR activity in bacterial lysates” value (E. coli TrxR [7]) was “not affected”. For the same compound, the “ebselen concentration that inhibited growth” value (E. coli gshA^− strain) was 2 µM, the MIC (wild type DHB4 E. coli) was 40 µM (≈ 11 µg/mL) and the “concentration required to inhibit growth” value (E. coli NHHJ) was “up to 50 μg per ml”. For the same compound, the MBC (Helicobacter pylori; macrolide resistant strains) was 12.5 µg/mL (≈ 45.6 µM), the MBC (Helicobacter pylori; two macrolide sensitive strains) was 3.12 µg/mL (≈ 11.4 µM) and the “synergistic toxicity with silver” value (HeLa cells; 5 μM) was “did not show synergistic of toxicity”. For the same compound, the “synergistic toxicity with silver” value (HeLa cells; 20 μM, silver at high concentration) was “enhanced the toxicity of silver”, the “Relative GPx activity” value [8] was 1 and the “inhibition of E. coli TrxR (in words)” value (E. coli TrxR [4]) was “strongly inhibited”. The IC50 (E. coli TrxR [4]; DTNB assay, 100 nM TrxR, 2 μM Trx, 240 μM NADPH, 1 mM DTNB, read-out: IC50 for E. coli TrxR) was 6000 nM, the Ki (E. coli TrxR [4]; Dixon plot, 6 nM TrxR, Trx 1, 2 or 4 μM, read-out: Ki for E. coli TrxR) was 300 nM and the “GSH amount in cell lysate” value (GSH) was “obviously lower than the others”. The “sensitivity of gshA^− / gor^− strains compared with wild type” value (gshA^− DHB4 E. coli; E. coli strains wt, gshA^−, gor^−) was “Wild type bacteria were more resistant than gor^− and gshA^− strains”, the MIC (gshA^− DHB4 E. coli; Escherichia coli, read-out: MIC for gshA^− DHB4 E. coli) was 26 µM (≈ 7.13 µg/mL) and the “ebselen concentration that inhibited growth” value (wild type (wt) E. coli) was 10 µM. For the same compound, the MIC [9] was < 20 µg/mL, the Km (Mammalian TrxR [5]) was 2.5 µM and the “kcat, mammalian TrxR” value (Mammalian TrxR [5]) was 9.8 s⁻¹.

With `Cc1ncc([N+](=O)[O-])n1CCO` [metronidazole] the MIC (H. pylori strains; Helicobacter pylori) was 6.25 µg/mL (≈ 36.5 µM) and the MIC (H. pylori strains; Helicobacter pylori, NCTC11637) was 0.78 µg/mL (≈ 4.56 µM).

In the case of `O=[N+]([O-])[O-].[Ag+]` [silver, Silver nitrate], the “MIC, silver alone” value (E. coli; 16 h) is reported as “about 42 μM”, the MIC for silver (E. coli; in the presence of 2 μM ebselen, 16 h) is reported as 8.4 µM and the “silver concentration that inhibited E. coli growth” value (E. coli; in the presence of 8 μM ebselen, 16 h) is reported as 1 µM.
